# Assay results reported in ChEMBL document CHEMBL5150017, “Mechanism of Action and Structure-Activity Relationship of α-Conotoxin Mr1.1 at the Human α9α10 Nicotinic Acetylcholine Receptor” (J Med Chem, 2022).
# Active and inactive are the calls of the source. The calls are words filed in the database; no cut-off is given here.
# Tested on: Mus musculus
# Experiment: Analgesic activity in chronic constriction injury-induced mechanical pain mouse model assessed as increase in paw withdrawal latency at 60 mg/kg measured after 1 to 7 hrs
# Format: functional, organism-based
# Conditions: time 1-7 hrs
compound,measurement,value
NCC1(CC(=O)O)CCCCC1,Activity,Active
